Where two headings read alike, the source gives them in different places.
Legend:
[1] = test system: primary human hepatocytes (PHH) spheroids; conditions: 14 days of treatment, preliminary
Procedure: To compare how the best performing media influenced the DILI response, a similar approach but in the 384-well format we performed a preliminary hepatotoxicity study (Figure S6). Five prototypic compounds from the previous study were tested in HMM, WENG, and WENG+ media. […] Hepatotoxicity was evaluated after chronic exposure to each of the five drug compounds at 1×, 5×, and 20× times their clinical Cmax concentrations for two weeks, as outlined by [Vorrink et al., (2018)].
ATP conent (expressed as relative light units; RLU) was used to measure the energy status of the PHH spheroids. The spheroids were incubated in AccuMax cell dissociation solution (Thermo Fisher Scientific) for 30 min at 37°C followed by centrifugation at 100 x g for 5 min. The CellTiter-Glo3D assay (Promega, Madison, Wisconsin) was used, with slight modifications. Briefly, the plate was first left for 30 min at room temperature for temperature equilibration. Thereafter CellTiter-Glo® 3D was added, and the plate left in room temperature for another 20 min on a horizontal plate shaker. The luminescence was measured on a Spark plate reader (TECAN). The results are presented as mean values +/- SD of eight technical replicates performed on three independent occasions.
Preliminary studies of hepatotoxicity were conducted as previously described for the 96-well format ([Vorrink et al., 2018]). Briefly, PHHs were cultured in 384-well plates in HMM, WENG or WENG+ media for 1 week to form spheroids. The compounds were dissolved in dimethyl sulfoxide (DMSO), and added to the wells at a final DMSO concentration of 0.5%. As in the Vorrink et al. study, final concentrations of 1×, 5×, and 20× times the clinical Cmax of the compounds were used The exposure medium was changed every 48–72h for the 14 days of treatment. On the last day, PHH viability was assessed by measurement of ATP content (see above) and a viability below 80% of control levels was considered hepatotoxic ([Vorrink et al., 2018]).

PHH spheroids = conditions: 96-well format, medium similar to WEHG; ref Vorrink et al., 2018; cited from earlier work
albumin = conditions: ref Davies and Anderson, 1997; U. S. Food and Drug Administration, 2019; cited from earlier work
[2] = all media (HMM, WENG, WENG+), all concentrations (1×, 5×, 20× clinical Cmax), controls gave correct results
[3] = WENG+ medium (zinc-supplemented), 1×, 5×, 20× clinical Cmax

SMILES | Hepatotoxicity (DILI signal; viability below 80% of control levels considered hepatotoxic) [1, 2] | DILI classification in the previous study (PHH spheroids) | Hepatotoxicity (DILI signal; viability below 80% of control levels considered hepatotoxic) [1, 3] | further results
Cn1cnc([N+](=O)[O-])c1Sc1ncnc2nc[nH]c12 [azathioprine] | positive | DILI-positive | – | –
CN(C)CCCN1c2ccccc2Sc2ccc(Cl)cc21 [chlorpromazine] | – | DILI-positive | did not show a DILI signal | –
O=C(O)Cc1ccccc1Nc1c(Cl)cccc1Cl [diclofenac] | – | DILI-positive | did not show a DILI signal | –
OC(Cn1cncn1)(Cn1cncn1)c1ccc(F)cc1F [fluconazole] | – | false DILI-negative | false negative response | Hepatotoxicity (DILI signal; viability below 80% of control levels considered hepatotoxic) ([1]; HMM medium, 1×, 5×, 20× clinical Cmax): strong DILI signal; Hepatotoxicity (DILI signal; viability below 80% of control levels considered hepatotoxic) ([1]; WENG medium, 1×, 5×, 20× clinical Cmax): strong DILI signal
Cc1ncc2n1-c1ccc(Cl)cc1C(c1ccccc1F)=NC2 [midazolam] | – | – | – | Binding to albumin (albumin): highly bound
CC(=O)CC(c1ccccc1)c1c(O)c2ccccc2oc1=O (stereo not drawn) [warfarin] | negative | – | – | –

From PMC8551077, “Conditions for maintenance of hepatocyte differentiation and function in 3D cultures” (iScience, 2021)
